# Values quoted from earlier work, collected in patent US20200352905A1, “6-(2,4-DICHLOROPHENYL)-5-[4-[(3S)-1-(3-FLUOROPROPYL)PYRROLIDIN-3-YL]OXYPHENYL]-8,9-DIHYDRO-7H-BENZO[7]ANNULENE-2-CARBOXYLIC ACID FOR USE IN METASTATIC OR ADVANCED BREAST CANCER PATIENTS” (SANOFI, priority 2019, published 2020).
# Read-outs that look alike come from different tables or passages of the source.
# What was measured:
# CYP3A [1] = settings: cited from earlier work
# CYP3A [2] = settings: cited from earlier work; remark: listed apart in the source
# CYP2C8 = settings: cited from earlier work
# advanced breast cancer = settings: prior CDK4/6, mTOR, fulvestrant not allowed, cited from earlier work
# [3] = moderate CYP3A inhibitors, victim midazolam (oral)
# [4] = strong CYP3A inhibitors, victim midazolam (oral)
# [5] = victim Sildenafil, 62.5-125 mg BID 8 weeks
# [6] = victim Quetiapine, 200 mg TID (26 days)
# [7] = victim Midazolam, 1000 mg QD (14 days)
# [8] = victim Midazolam, 1000 mg BID (14 days)
# [9] = victim Triazolam, 200-400 mg QD 28 days
# [10] = victim Nifedipine, 500 mg 4 times daily 5 days
# [11] = victim Verapamil, 100 mg QD 21 days
# [12] = victim Midazolam, 140 mg QD (10 days)
# [13] = victim Indinavir, 500 mg TID 14 days
# [14] = EFECT trial 2003-2005, fulvestrant single agent arm, n=270, setting 2L+
# [15] = PALOMA-3 trial 2013-2014, fulvestrant single agent arm, n=138, setting 2L+
# [16] = SANDPIPER trial 2015-2017, fulvestrant single agent arm, n=134, setting 2L+
# [17] = SoFEA trial 2004-2010, fulvestrant single agent arm, n=178, setting 2L+
structure (smiles),measurement,setting,value
COCCc1ccc(Cl)c(CN(C(=O)[C@H]2CNCC[C@@H]2c2ccc(OCCOc3c(Cl)cc(C)cc3Cl)nc2)C2CC2)c1 [ACT-178882],AUC Ratio,CYP3A [1]; [3],2.19
CC(C)c1cc(C(C)C)c(CC(=O)NS(=O)(=O)Oc2c(C(C)C)cccc2C(C)C)c(C(C)C)c1 [Avasimibe],% of AUC decrease,"CYP3A [2]; victim Midazolam, 750 mg/day (7 days)",93.5%
CC(C)(C)NC(=O)N[C@H](C(=O)N1C[C@H]2[C@@H]([C@H]1C(=O)NC(CC1CCC1)C(=O)C(N)=O)C2(C)C)C(C)(C)C (stereo partly drawn) [Boceprevir],AUC Ratio,CYP3A [1]; [4],5.05
COc1ccccc1Oc1c(NS(=O)(=O)c2ccc(C(C)(C)C)cc2)nc(-c2ncccn2)nc1OCCO [Bosentan],% of AUC decrease,CYP3A [2]; [5],69%
same,% oral CL increase,CYP3A [2]; [5],239.8%
NC(=O)N1c2ccccc2C=Cc2ccccc21 [Carbamazepine],Max % of AUC decrease or CL increase,"CYP2C8; substrate dasabuvir, 200 mg QD (3 days) then BID (21 days)",70.3%
same,% of AUC decrease,CYP3A [2]; [6],86.6%
same,% oral CL increase,CYP3A [2]; [6],643.1%
CC[C@H]1OC(=O)[C@H](C)[C@@H](O[C@H]2C[C@@](C)(OC)[C@@H](O)[C@H](C)O2)[C@H](C)[C@@H](O[C@@H]2O[C@H](C)C[C@H](N(C)C)[C@H]2O)[C@](C)(OC)C[C@@H](C)C(=O)[C@H](C)[C@@H](O)[C@]1(C)O [Clarithromycin],AUC Ratio,CYP3A [1]; [4],8.39
Cc1nc2c([nH]1)-c1ccccc1N(C(=O)c1ccc(NC(=O)c3ccccc3-c3ccccc3)cc1)CC2 [Conivaptan],AUC Ratio,CYP3A [1]; [4],5.76
CCCCc1oc2ccc(NS(C)(=O)=O)cc2c1C(=O)c1ccc(OCCCN(CCCC)CCCC)cc1 [Dronedarone],AUC Ratio,"CYP3A [1]; moderate CYP3A inhibitors, victim simvastatin",3.66
O=C1Nc2ccc(Cl)cc2[C@@](C#CC2CC2)(C(F)(F)F)O1 [Efavirenz],% of AUC decrease,"CYP3A [2]; victim Simvastatin acid, 600 mg QD 28 days",60.4%
CNC(=O)c1ccc(N2C(=S)N(c3ccc(C#N)c(C(F)(F)F)c3)C(=O)C2(C)C)cc1F [Enzalutamide],% of AUC decrease,"CYP3A [2]; victim Midazolam, 160 mg QD (85 ± 3 days)",85.9%
Cc1cc(C#N)cc(C)c1Oc1nc(Nc2ccc(C#N)cc2)nc(N)c1Br [Etravirine],% of AUC decrease,"CYP3A [2]; victim Sildenafil, 800 mg BID 13.5 days",56.7%
OC(Cn1cncn1)(Cn1cncn1)c1ccc(F)cc1F [Fluconazole],AUC Ratio,CYP3A [1]; [3],4.93
O=c1c(-c2ccc(O)cc2)coc2cc(O)cc(O)c12 [Genistein],% of AUC decrease,CYP3A [2]; [7],13.7%
same,% oral CL increase,CYP3A [2]; [7],136.9%
CC[C@H](Nc1ncnc2[nH]cnc12)c1nc2cccc(F)c2c(=O)n1-c1ccccc1 [Idelalisib],AUC Ratio,CYP3A [1]; [4],5.15
CCC(C)n1ncn(-c2ccc(N3CCN(c4ccc(OCC5COC(Cn6cncn6)(c6ccc(Cl)cc6Cl)O5)cc4)CC3)cc2)c1=O (stereo not drawn) [Itraconazole],AUC Ratio,CYP3A [1]; [4],10.80
CC(=O)N1CCN(c2ccc(OCC3COC(Cn4ccnc4)(c4ccc(Cl)cc4Cl)O3)cc2)CC1 (stereo not drawn) [Ketoconazole],AUC Ratio,"CYP3A [1]; in vivo, po",15.90
CN[C@@H](C)C(=O)N[C@H](C(=O)N1CCC[C@H]1c1nc(C(=O)c2ccc(F)cc2)cs1)C1CCCCC1 [LCL 161],AUC Ratio,CYP3A [1]; [4],8.80
CCc1nn(CCO)c(CC)c1Oc1cc(C#N)cc(C#N)c1 [Lersivirine],% of AUC decrease,CYP3A [2]; [8],51.4%
same,% oral CL increase,CYP3A [2]; [8],105.5%
COCC(=O)O[C@]1(CCN(C)CCCc2nc3ccccc3[nH]2)CCc2cc(F)ccc2[C@@H]1C(C)C [Mibefradil],AUC Ratio,CYP3A [1]; [4],8.86
Clc1ccc(C(c2ccccc2Cl)C(Cl)Cl)cc1 (stereo not drawn) [Mitotane],% of AUC decrease,"CYP3A [2]; victim Midazolam, Maximum of 3.5 g TID (chronic therapy)",94.5%
NC(=O)C[S+]([O-])C(c1ccccc1)c1ccccc1 (stereo not drawn) [Modafinil],% of AUC decrease,CYP3A [2]; [9],57.6%
same,% oral CL increase,CYP3A [2]; [9],35.7%
CCOc1ccc2ccccc2c1C(=O)N[C@@H]1C(=O)N2[C@@H]1SC(C)(C)[C@@H]2C(=O)O [Naficillin],% of AUC decrease,CYP3A [2]; [10],62.6%
same,% oral CL increase,CYP3A [2]; [10],145.1%
CCc1nn(CCCN2CCN(c3cccc(Cl)c3)CC2)c(=O)n1CCOc1ccccc1 [Nefazodone],AUC Ratio,CYP3A [1]; [4],5.44
Cc1c(O)cccc1C(=O)N[C@@H](CSc1ccccc1)[C@H](O)CN1C[C@H]2CCCC[C@H]2C[C@H]1C(=O)NC(C)(C)C [Nelfinavir],AUC Ratio,CYP3A [1]; [4],5.29
CCC1(c2ccccc2)C(=O)NC(=O)NC1=O [Phenobarbital],% of AUC decrease,CYP3A [2]; [11],76.6%
same,% oral CL increase,CYP3A [2]; [11],400.9%
O=C1NC(=O)C(c2ccccc2)(c2ccccc2)N1 [Phenytoin],% of AUC decrease,"CYP3A [2]; victim Nisoldipine, 200-450 mg/day (chronic treatment)",89.5%
CC[C@@H]([C@H](C)O)n1ncn(-c2ccc(N3CCN(c4ccc(OC[C@@H]5CO[C@@](Cn6cncn6)(c6ccc(F)cc6F)C5)cc4)CC3)cc2)c1=O [Posaconazole],AUC Ratio,CYP3A [1]; [4],6.23
CO[C@H]1/C=C/O[C@@]2(C)Oc3c(C)c(O)c4c(c3C2=O)C2=NC3(CCN(CC(C)C)CC3)NC2=C(NC(=O)/C(C)=C\C=C\[C@H](C)[C@H](O)[C@@H](C)[C@@H](O)[C@@H](C)[C@H](OC(C)=O)[C@@H]1C)C4=O [Rifabutin],% oral CL increase,"CYP3A [2]; victim Delavirdine, 300 mg QD 14 days",458.0%
CO[C@H]1/C=C/O[C@@]2(C)Oc3c(C)c(O)c4c(O)c(c(/C=N/N5CCN(C)CC5)c(O)c4c3C2=O)NC(=O)/C(C)=C\C=C\[C@H](C)[C@H](O)[C@@H](C)[C@@H](O)[C@@H](C)[C@H](OC(C)=O)[C@@H]1C [Rifampin],Max % of AUC decrease or CL increase,"CYP2C8; substrate pioglitazone, 600 mg QD (6 days)",53.8%
same,Max % of AUC decrease or CL increase,"CYP2C8; substrate repaglinide, 600 mg QD (7 days)",79.6%
same,Max % of AUC decrease or CL increase,"CYP2C8; substrate rosiglitazone, 600 mg QD (6 days)",66.4%
CC(C)(C)NC(=O)[C@@H]1C[C@@H]2CCCC[C@@H]2CN1C[C@@H](O)[C@H](Cc1ccccc1)NC(=O)[C@H](CC(N)=O)NC(=O)c1ccc2ccccc2n1 [Saquinavir],AUC Ratio,CYP3A [1]; [4],5.18
CC(C)[C@H](O)C(=O)N[C@@H](C)C(=O)N[C@@H]1C(=O)N(C)CCc2ccccc21 [Semagacestat],% of AUC decrease,CYP3A [2]; [12],76.4%
same,% oral CL increase,CYP3A [2]; [12],324.6%
COc1ccc2c(c1)N(C(=O)OC(C)C)[C@@H](CSC)C(=S)N2 [Talviraline],% of AUC decrease,CYP3A [2]; [13],61.7%
same,% oral CL increase,CYP3A [2]; [13],181.2%
CCC[C@H](NC(=O)[C@@H]1[C@H]2CCC[C@H]2CN1C(=O)[C@@H](NC(=O)[C@@H](NC(=O)c1cnccn1)C1CCCCC1)C(C)(C)C)C(=O)C(=O)NC1CC1 [Telaprevir],AUC Ratio,CYP3A [1]; [4],13.5
CC[C@H]1OC(=O)[C@H](C)C(=O)[C@H](C)[C@@H](O[C@@H]2O[C@H](C)C[C@H](N(C)C)[C@H]2O)[C@](C)(OC)C[C@@H](C)C(=O)[C@H](C)[C@H]2N(CCCCn3cnc(-c4cccnc4)c3)C(=O)O[C@]12C [Telithromycin],AUC Ratio,CYP3A [1]; [4],6.2
CC(C)CN(C[C@@H](O)[C@H](Cc1ccccc1)NC(=O)O[C@H]1CCOC1)S(=O)(=O)c1ccc(N)cc1 [amprenavir],AUC Ratio,CYP3A [1]; in vivo,2.93
C[C@@H](O[C@H]1OCCN(Cc2n[nH]c(=O)[nH]2)[C@H]1c1ccc(F)cc1)c1cc(C(F)(F)F)cc(C(F)(F)F)c1 [aprepitant],AUC Ratio,CYP3A [1]; [3],3.29
COC(=O)N[C@H](C(=O)N[C@@H](Cc1ccccc1)[C@@H](O)CN(Cc1ccc(-c2ccccn2)cc1)NC(=O)[C@@H](NC(=O)OC)C(C)(C)C)C(C)(C)C [atazanavir],AUC Ratio,"CYP3A [1]; moderate CYP3A inhibitors, victim maraviroc",3.57
CC(=O)N1CCN([C@H]2CCN(C(=O)N(C)[C@H](C)c3cc(C(F)(F)F)cc(C(F)(F)F)c3)[C@@H](c3ccc(F)cc3C)C2)CC1 [casopitant],AUC Ratio,CYP3A [1]; [3],3.13
C[C@]12CC[C@@H]3c4ccc(O)cc4C[C@@H](CCCCCCCCC[S+]([O-])CCCC(F)(F)C(F)(F)F)[C@H]3[C@@H]1CC[C@@H]2O (stereo partly drawn) [fulvestrant],CBR,advanced breast cancer; [14],32.2%
same,ORR,advanced breast cancer; [14],7.4%
same,CBR,advanced breast cancer; [15],36%
same,ORR,advanced breast cancer; [15],11%
same,CBR,advanced breast cancer; [16],37.3%
same,ORR,advanced breast cancer; [16],11.9%
same,CBR,advanced breast cancer; [17],31%
same,ORR,advanced breast cancer; [17],8%
C[C@@H](c1nc(-c2ccc(C#N)cc2)cs1)[C@](O)(Cn1cncn1)c1cc(F)ccc1F [isavuconazole],AUC Ratio,CYP3A [1]; [3],2.03
N#Cc1ccnc(N2C(=O)CC[C@H]2C(=O)N(c2cncc(F)c2)[C@H](C(=O)NC2CC(F)(F)C2)c2ccccc2Cl)c1 [ivosidenib],Max % of AUC decrease or CL increase,"CYP2C8; substrate repaglinide, 1200 mg QD (19 days), PBPK",59.0 (PBPK) %
Cc1ccccc1-c1cc(N2CCN(C)CC2)ncc1N(C)C(=O)C(C)(C)c1cc(C(F)(F)F)cc(C(F)(F)F)c1 [netupitant],AUC Ratio,CYP3A [1]; [3],2.44
Cc1cn(-c2cc(NC(=O)c3ccc(C)c(Nc4nccc(-c5cccnc5)n4)c3)cc(C(F)(F)F)c2)cn1 [nilotinib],AUC Ratio,CYP3A [1]; [3],2.40
CCC1C(C)=NN=C(c2ccc(OC)c(OC)c2)c2cc(OC)c(OC)cc21 (stereo not drawn) [tofisopam],AUC Ratio,CYP3A [1]; [3],2.36
